Consider 7 molecules from patent US20150119373A1, “NOVEL BETULINIC ACID DERIVATIVES AS HIV INHIBITORS” (HETERO RESEARCH FOUNDATION, priority 2012, published 2015).

What is called AUC(0-inf) is the area under the concentration-time curve extrapolated to infinity. A lower AUC(0-inf) goes with less exposure. In general, Cmax refers to the maximum level reached in the sampled fluid or tissue. By viability is commonly meant the share of living cells, or the viability signal relative to a control. In general, inhibition refers to the relative decrease from the control value, in per cent. For orientation: Tmax means the time from dosing to the highest level.

Data set [1] can be described thus: Single dose oral pharmacokinetic study in mice. The class given is in vivo. To be noted: for AUC(0-inf) / Cmax / AUC(0-t) / half-life / Tmax: mouse, plasma; for half-life: read-out: t½ (converted). In a few lines: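 Mice or rats dosed orally at 30 mg/kg in a suitable vehicle (10 ml/kg). Retro-orbital blood on K3 EDTA at defined time points under light ether anaesthesia; plasma analysed by LC-MS-MS.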

A short description of data set [2]: Single dose oral pharmacokinetic study in rat. The class given is in vivo. The conditions noted are these: plasma, Rat oral PK @30 mg/kg (Table 3); for half-life: read-out: t½ (converted). On the procedure: The test item was administered through oral route to animals (rat/mice) at 30 mg/kg dose in a suitable vehicle at 10 ml/kg dose volume. Blood samples (˜50 uL at each time point) were collected from retro-orbital plexus using K3 EDTA as anticoagulant in eppendorf tubes at defined time intervals under light ether anesthesia. The samples were centrifuged at 3500×g to separate plasma and stored at −80° C. until analysis.
Sample analysis: Test samples were analyzed using LC-MS-MS after developing fit-for-purpose method for each of test compound.

Data set [3] is described as follows: Cyto-toxicity assay (MTT) in MT2 cells without virus. To be noted: human. The class given is cell-based. On the procedure:
For cyto-toxicity assay the same amount of MT2 cells as in antiviral assay without virus was added to the 96 well plates. The cyto-toxicity was measured using MTT reagent in parallel with p24 estimation. The percent viability is calculated in comparison with vehicle control.

For a further data set, the system named is HIV-1 strain 92HT599. Kind of data set: Antiviral activity: p24 estimation in MT2 cells infected with HIV-1 strain 92HT599. The class given is cell-based. The conditions noted are these: for inhibition at 0.1 µM: read-out: Antiviral activity % inhibition 100 nM; for inhibition at 1 µM: read-out: Antiviral activity % inhibition 1000 nM. The essentials: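 Infection of MT2 cells used 10 TCID50/30000 cells, with compound present at ≤1% DMSO for ~96 h. p24 in well aliquots was quantified by kit. Percent inhibition is relative to vehicle controls.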

Where [4] appears, read: Mice oral PK @30 mg/kg (Table 4).
The mark [5] stands for this setting: Mice oral PK @30 mg/kg (Table 4), read-out: AUC 0-t.
[6] abbreviates: Human immunodeficiency virus 1, 100 nM, MT2 cells, HIV-1 92HT599, ~96 hours, p24.
The mark [7] stands for this setting: Human immunodeficiency virus 1, 1000 nM, MT2 cells, HIV-1 92HT599, ~96 hours, p24.
Where [8] appears, read: Oral PK @ 30 mg/ kg dose in mice (Table 6).
Setting [9] is: Oral PK @ 30 mg/ kg dose in mice (Table 6), read-out: AUCt.
The mark [10] stands for this setting: Human immunodeficiency virus 1, MT2, 96 h.

Read-outs that look alike come from different tables or passages of the source.

Take `C=C(C)[C@@H]1CC[C@]2(C(=O)O)CC[C@]3(C)[C@H](CC[C@@H]4[C@@]5(C)CC[C@H](OC(=O)[C@H]6[C@@H](CC(=O)O)C6(C)C)C(C)(C)[C@@H]5CC[C@]43C)[C@@H]12` [Compound 1, (1R,3aS,5aR,5bR,7aR,9S,11aR,11bR,13aR,13bR)-9-((1S,3R)-3-(carboxymethyl)-2,2-dimethylcyclopropanecarbonyloxy)-5a,5b,8,8,11a-pentamethyl-1-(prop-1-en-2-yl)icosahydro-1H-cyclopenta[a]chrysene-3a-carboxylic acid]: in data set [1] (setting [4]), the AUC(0-inf) was 36.7 µg·h/mL, the highest level (Cmax) was 8790 ng/mL and the half-life is 374 min. In addition, the AUC(0-t) in data set [1] (setting [5]) is 35.9 µg·h/mL. Further, in data set [2], the AUC(0-inf) amounted to 3230 ng·h/mL, the AUC(0-t) amounted to 3120 ng·h/mL, the Cmax is 1220 ng/mL and the half-life is 92.1 min. In addition, in data set [3], the viability at 100 nM came to 96% and the viability at 1000 nM is 92%. For the same molecule, in the data set on HIV-1 strain 92HT599 (setting [6]), the inhibition at 0.1 µM was 95%. Besides, the inhibition at 1 µM in the data set with HIV-1 strain 92HT599 (setting [7]) is 100%.
For `CC(C)(CC(=O)O[C@H]1CC[C@]2(C)[C@H]3CC[C@@H]4[C@H]5[C@H](C6(C)CC6)CC[C@]5(C(=O)N[C@@H]5C[C@H](C(=O)N6CCCCC6)C5(C)C)CC[C@@]4(C)[C@]3(C)CC[C@H]2C1(C)C)C(=O)O` [Example 4, 4-((1R,3aS,5aR,5bR,7aR,9S,11aR,11bR,13aR,13bR)-3a-((1R,3S)-2,2-dimethyl-3-(piperidine-1-carbonyl)cyclobutylcarbamoyl)-5a,5b,8,8,11a-pentamethyl-1-(1-methylcyclopropyl)icosahydro-1H-cyclopenta[a]chrysen-9-yloxy)-2,2-dimethyl-4-oxobutanoicacid], in data set [1] (setting [4]), the AUC(0-inf) is 155 µg·h/mL, the Cmax came out at 9780 ng/mL and the half-life was 870 min. Besides, in data set [1] (setting [5]), the AUC(0-t) was 138 µg·h/mL. Besides, in data set [2], the total exposure AUC(0-inf) was determined as 22600 ng·h/mL, the AUC(0-t) was 22300 ng·h/mL, the Cmax was found to be 5920 ng/mL and the half-life was 266 min. In data set [3], the viability at 100 nM was 82% and the viability at 1000 nM was found to be 86%. The inhibition at 0.1 µM in the data set on HIV-1 strain 92HT599 (setting [6]) was 98%. In addition, the inhibition at 1 µM in the data set on HIV-1 strain 92HT599 (setting [7]) is 98%.
Take `COCCOC1CCN(C(=O)[C@]23CC[C@@H](C4(C)CC4)[C@@H]2[C@H]2CC[C@@H]4[C@@]5(C)CC[C@H](OC(=O)CC(C)(C)C(=O)O)C(C)(C)[C@@H]5CC[C@@]4(C)[C@]2(C)CC3)CC1` [Example 41, 4-(((1R,3aS,5aR,5bR,7aR,9S,11aR,11bR,13aR,13bR)-3a-(4-(2-methoxyethoxyl)piperidine-1-carbonyl)-5a,5b,8,8,11a-pentamethyl-1-(1-methylcyclopropyl)icosahydro-1H-cyclopenta[a]chrysen-9-yl)oxy)-2,2-dimethyl-4-oxobutanoic acid]: in data set [1] (setting [8]), the Tlast came to 48 h, the total exposure AUC(0-inf) is 240 µg·h/mL, the Cmax worked out at 9200 ng/mL and the Tmax amounted to 6.5 h. Besides, in data set [1] (setting [9]), the AUC(0-t) turned out to be 214 µg·h/mL. In data set [3], the viability at 100 nM worked out at 86% and the viability at 1000 nM is 86%. In the data set with HIV-1 strain 92HT599 (setting [6]), the inhibition at 0.1 µM is 97%. The inhibition at 1 µM in the data set with HIV-1 strain 92HT599 (setting [7]) was 99%.
`COCCOC1CCN(C(=O)[C@]23CC[C@@H](C4(C)CC4)[C@@H]2[C@H]2CC[C@@H]4[C@@]5(C)CC[C@H](OC(=O)[C@H]6C[C@@H](C(=O)O)C6(C)C)C(C)(C)[C@@H]5CC[C@@]4(C)[C@]2(C)CC3)CC1` [Example 42, (1R,3S)-3-((((1R,3aS,5aR,5bR,7aR,9S,11aR,11bR,13aR,13bR)-3a-(4-(2-methoxyethoxyl)piperidine-1-carbonyl)-5a,5b,8,8,8,11a-pentamethyl-1-(1-methylcyclopropyl)icosahydro-1H-cyclopenta[a]chrysen-9-yl)oxy)carbonyl)-2,2-dimethylcyclobutane-1-carboxylic acid]: in data set [1] (setting [8]), the Tlast is 48 h, the highest level (Cmax) was 7400 ng/mL and the time to peak (Tmax) came to 32 h. Further, the AUC(0-t) in data set [1] (setting [9]) stood at 300 µg·h/mL. For the same molecule, the viability at 100 nM in data set [3] (100 nM, MT2 cells, MTT, read-out: Cytotoxicity % viability 100 nM) was 86%. Besides, the viability at 1000 nM in data set [3] (1000 nM, MT2 cells, MTT, read-out: Cytotoxicity % viability 1000 nM) was found to be 84%. In the data set with HIV-1 strain 92HT599 (setting [10]), the inhibition at 0.1 µM was 94% and the inhibition at 1 µM was 99%.
As for `CC(C)(CC(=O)O[C@H]1CC[C@]2(C)[C@H]3CC[C@@H]4[C@H]5[C@H](C6(C)CC6)CC[C@]5(C(=O)N5CCC(C(=O)NCCN6CCOCC6)CC5)CC[C@@]4(C)[C@]3(C)CC[C@H]2C1(C)C)C(=O)O` [Example 49, 2,2-dimethyl-4-oxo-4-(((1R,3aS,5aR,5bR,7aR,9S,11aR,11bR,13aR,13bR)-5a,5b,8,8,11a-pentamethyl-1-(1-methylcyclopropyl)-3a-(4-((2-morpholinoethyl)carbamoyl)piperidine-1-carbonyl)icosahydro-1H-cyclopenta[a]chrysen-9-yl)oxy)butanoic acid], in data set [1] (setting [8]), the Tlast stood at 48 h, the AUC(0-inf) was found to be 38.8 µg·h/mL, the highest level (Cmax) was 5600 ng/mL and the Tmax was found to be 1.3 h. For the same molecule, the AUC(0-t) in data set [1] (setting [9]) is 38.7 µg·h/mL. Further, in data set [3], the viability at 100 nM stood at 85% and the viability at 1000 nM was found to be 88%. Further, the inhibition at 0.1 µM in the data set with HIV-1 strain 92HT599 (setting [6]) was 99%. Besides, in the data set on HIV-1 strain 92HT599 (setting [7]), the inhibition at 1 µM is 98%.
Turning to `CC1([C@@H]2CC[C@]3(C(=O)N4CCC(C(=O)NCCN5CCOCC5)CC4)CC[C@]4(C)[C@H](CC[C@@H]5[C@@]6(C)CC[C@H](OC(=O)[C@H]7C[C@@H](C(=O)O)C7(C)C)C(C)(C)[C@@H]6CC[C@]54C)[C@@H]23)CC1` [Example 50, (1R,3S)-2,2-dimethyl-3-((((1R,3aS,5aR,5bR,7aR,9S,11aR,11bR,13aR,13bR)-5a,5b,8,8,11a-pentamethyl-1-(1-methylcyclopropyl)-3a-(4-((2-morpholinoethyl)carbamoyl)piperidine-1-carbonyl)icosahydro-1H-cyclopenta[a]chrysen-9-yl)oxy)carbonyl)cyclobutane-1-carboxylic acid], in data set [1] (setting [8]), the Tlast stood at 48 h, the AUC(0-inf) amounted to 171 µg·h/mL, the Cmax was 9100 ng/mL and the time to peak (Tmax) was 6 h. Also, the AUC(0-t) in data set [1] (setting [9]) turned out to be 164 µg·h/mL. In data set [3], the viability at 100 nM is 86% and the viability at 1000 nM was 96%. In addition, the inhibition at 0.1 µM in the data set with HIV-1 strain 92HT599 (setting [6]) is 99%. Moreover, the inhibition at 1 µM in the data set with HIV-1 strain 92HT599 (setting [7]) is 99%.
`CC(C)(CC(=O)O[C@H]1CC[C@]2(C)[C@H]3CC[C@@H]4[C@H]5[C@H](C6(C)CC6)CC[C@]5(C(=O)N5CCC(C#N)(c6ccccc6)CC5)CC[C@@]4(C)[C@]3(C)CC[C@H]2C1(C)C)C(=O)O` [Example 56, 4-((1R,3aS,5aR,5bR,7aR,9S,11aR,11bR,13aR,13bR)-3a-(4-cyano-4-phenylpiperidine-1-carbonyl)-5a,5b,8,8,11a-pentamethyl-1-(1-methylcyclopropyl)icosahydro-1H-cyclopenta[a]chrysen-9-yloxy)-2,2-dimethyl-4-oxobutanoic acid]: in data set [1] (setting [8]), the Tlast was found to be 24 h, the area under the curve AUC(0-inf) is 185 µg·h/mL, the highest level (Cmax) was 5900 ng/mL and the Tmax came to 7 h. Moreover, the AUC(0-t) in data set [1] (setting [9]) is 95.5 µg·h/mL. In data set [3], this molecule had a viability at 100 nM of 83% and a viability at 1000 nM of 80%. Besides, the inhibition at 0.1 µM with HIV-1 strain 92HT599 (setting [6]) was 76%. For the same molecule, the inhibition at 1 µM in the data set with HIV-1 strain 92HT599 (setting [7]) is 99%.
